# Measured values published in patent US7101719B2, “Support and method for cell based assays” (GE Healthcare Limited, priority 2000, dated 2006).
# Experiments:
# Format in all cases: cell-based
# [1] = system: CHO cells; experiment: Uptake of radiolabelled methionine into CHO cells cultured on CYTODEX/YOx Microcarriers (Example 2); details: cycloheximide 10 μM final concentration; CCD imaging; FIG. 1
# Description: CYTODEX™ and CYTODEX™/YOx Microcarrier beads were dispensed into sterile universal containers. Beads were collected by centrifugation at 100 rpm for one minute. Supernatants were removed and replaced with complete Ham's F12 nutrient mix containing 10% (v\v) FCS. Beads were incubated with rolling at 37° C. for 30 minutes. Beads were harvested by centrifugation at 100 rpm for 1 minute. Spent medium was removed and replaced with 10^7 cells in 500 μl or less. Beads plus cells were incubated at 37° C. for 20 minutes to permit cell attachment to beads. Fresh Ham's F12 medium was added to a final volume of 4 ml containing 5 mg/ml beads for [^35S] and 10 mg/ml for [^14C] or [^3H]. Beads were left to roll overnight at 37° C. Following overnight incubation, beads/cells were harvested by centrifugation at 100 rpm for 1 minute. Supernatant containing unattached cells was removed. Microcarrier beads were washed with PBS (×1) and resuspended in methionine deficient DMEM supplemented with radiolabelled methionine. Cultures were returned to 37° C. with rolling. [^3H]Methionine and [^14C] or [^35S]methionine were included at final concentrations of 8 μCi/ml and 4 μCi/ml respectively. […]
# [2] = system: CHO cells; experiment: Parallel assay of incorporation of [35S]methionine into CHO cells on CYTODEX/YOx Microcarriers (Example 3); details: cycloheximide 10 μM, without inhibitor 1700 IODs, 'no cell' controls 650 IODs, FIG. 4
# Description: (§1) 40 mg of YOx-loaded CYTODEX™ Microcarrier beads were dispensed into suitable sterile containers and allowed to settle. The supernatant was removed from each microcarrier pellet and the beads resuspended in 5 ml of either complete Ham's F12 nutrient mix (Sigma N-4888) or DMEM (Sigma D-6546), both containing 10% FCS, 2 mM L-glutamine and 50 μg/ml streptamycin/50 IU/ml penicillin. The microcarriers were incubated at 37° C. for thirty minutes without rolling.
# (§2) 10×10^6 CHO or HeLa cells in 5 ml complete medium were added to separate microcarrier preparations and the cultures incubated at 37° C. for thirty minutes without rolling. After the initial incubation cultures were incubated overnight at 37° C. with rolling. Following the overnight incubation, unattached cells were removed and the beads resuspended in 10 ml complete culture medium. Microcarriers/cells were maintained in culture until the cell density had reached a sufficient level. Culture medium was replaced every two days.
# (§3) Cycloheximide was prepared as a 1 mM stock in phosphate buffered saline and added to the cultures at a final concentration of 10 μM. […]
# (§4) Each microcarrier preparation was allowed to settle and the growth medium removed. […] Plates were read on the LEADseeker™ Imaging System with a 5 minute exposure time to detect cellular associated methionine.
# [3] = system: HeLa cells; experiment: Parallel assay of incorporation of [35S]methionine into HeLa cells on CYTODEX/YOx Microcarriers (Example 3); details: cycloheximide 10 μM, without inhibitor 900 IODs, 'no cell' controls 650 IODs, FIG. 4
# Description: as §1, §2, §3, §4
compound,measurement,setting,value
C[C@@H]1C[C@@H]([C@H](O)CC2CC(=O)NC(=O)C2)C(=O)[C@@H](C)C1 [cycloheximide],uptake of [35S]methionine into CHO cells,[1],inhibited
same,signal of [35S]methionine incorporation in the presence of protein synthesis inhibitor,[2],650 IODs
same,signal of [35S]methionine incorporation in the presence of protein synthesis inhibitor,[3],600 IODs
